# Reference: patent US20250289802A1, “3-(1-OXO-5-(PIPERIDIN-4-YL)ISOINDOLIN-2-YL)PIPERIDINE-2,6-DIONE DERIVATIVES AND USES THEREOF” (NOVARTIS AG, priority 2019, published 2025)
# Like-named read-outs stand apart in the source and are kept apart here.
# What was measured:
# IKZF2 (Helios) = IKZF2 (Helios) (Homo sapiens, UniProt Q96SW2+Q9UKS7); test: Prolabel quantification of IKZF2 protein levels in 293GT cells; format: cell-based
# Experimental: The Prolabel system from DiscoverX was used to develop high-throughput and quantitative assays to measure changes in IKZF1 and IKZF2 protein levels in response to compounds. The prolabel tag was derived from the alpha fragment of beta galactosidase and has the following protein sequence: mssnslavvlqrrdwenpgvtglnrlaahppfaswrnseeartdrpsqqlrsinge. The complementary fragment of beta-galactosidase (from DiscoverX), is added to the prolabel tag to form an active beta galactosidase enzyme whose activity can be precisely measured. In this way, the levels of a fusion protein with the prolabel tag can be quantified in cell lysates.
# Lentiviral vectors, based on the Invitrogen pLenti6.2/V5 DEST backbone, were constructed that placed the prolabel tag upstream of IKZF1, IKZF2 or GSPT1 and expressed the fusion protein from a CMV promoter.
# To ensure moderate and consistent expression of the prolabel fusion proteins across all cells in the population, stable cell lines were constructed from cells expressing a single copy of the construct. Lentivirus packaged with the constructs was made using the Virapower kit from Invitrogen.
# The levels of prolabel tagged fusion proteins in compound treated cell lines were measured as follows: Day 1, Cells were diluted to 1.0×10^6 cells/ml in normal growth medium. 17.5 μL of cells were plated in each well of a solid white 384 well plate. Plates were incubated overnight in a 37° C. tissue culture incubator.
# Day 2, Serial dilutions of compounds were made in 384 well plates from 10 mM stocks. 15 μL of DMSO was added to each well of a 384 well plate. In the first column, 15 μL of stock compound was added. The solution was mixed and 15 μL was transferred to the next column. This was repeated until 20 two-fold dilutions were prepared. 2.5 μL of diluted compounds were transferred into 60 μL of cell culture medium in another 384 well plate, and mixed well. 2.5 μL of this mixture was added to the plated cells. The final DMSO concentration was 0.5% and the highest concentration of compound was 50 μM. Plates were incubated overnight (e.g., about 14 h, 18 h, or 24 h) in a 37° C. tissue culture incubator.
# Day 3, Plates were removed from the incubator and allowed to equilibrate at rt for 30 minutes. Prolabel substrate (DiscoverX PathHunter Prolabel Detection Kit, User manual: 93-0180) was added as described by the manufacturers protocols. Plates were incubated at rt for three hours and luminescence was read using an Envision reader (Perkin Elmer) Data was analyzed and visualized using the Spotfire software package.
# human TGF-β2 = molecular target: T1, human TGF-β2 (Homo sapiens, UniProt P61812); conditions: Biacore; cited from earlier work
# T1 sequence (P61812 303-414 limits assumed): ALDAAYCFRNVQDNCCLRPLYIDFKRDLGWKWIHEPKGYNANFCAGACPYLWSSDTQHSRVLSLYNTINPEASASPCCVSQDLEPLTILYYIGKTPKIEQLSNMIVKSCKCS
# human TGF-β3 = molecular target: T2, human TGF-β3 (Homo sapiens, UniProt P10600); conditions: Biacore; cited from earlier work
# T2 sequence (P10600 301-412 limits assumed): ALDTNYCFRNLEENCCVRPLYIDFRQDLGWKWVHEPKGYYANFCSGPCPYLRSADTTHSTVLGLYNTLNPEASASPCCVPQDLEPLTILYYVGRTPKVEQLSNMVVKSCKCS
# IKZF2 (Helios), sequence (Q9UKS7 whole entry, the tested form may be a part): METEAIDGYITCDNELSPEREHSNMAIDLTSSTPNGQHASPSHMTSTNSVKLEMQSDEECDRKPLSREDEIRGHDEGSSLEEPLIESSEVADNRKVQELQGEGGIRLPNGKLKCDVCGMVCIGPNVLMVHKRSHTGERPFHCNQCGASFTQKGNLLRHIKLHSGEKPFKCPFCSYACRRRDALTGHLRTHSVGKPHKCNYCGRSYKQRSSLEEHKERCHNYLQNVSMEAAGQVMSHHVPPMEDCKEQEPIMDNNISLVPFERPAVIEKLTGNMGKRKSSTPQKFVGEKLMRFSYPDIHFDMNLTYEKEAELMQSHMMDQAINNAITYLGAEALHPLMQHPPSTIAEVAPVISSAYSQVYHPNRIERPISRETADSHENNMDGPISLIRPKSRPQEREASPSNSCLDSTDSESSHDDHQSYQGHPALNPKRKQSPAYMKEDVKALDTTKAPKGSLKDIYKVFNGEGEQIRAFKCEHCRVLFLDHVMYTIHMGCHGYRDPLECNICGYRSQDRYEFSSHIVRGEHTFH
# IKZF2 (Helios), sequence (Q96SW2 whole entry, the tested form may be a part): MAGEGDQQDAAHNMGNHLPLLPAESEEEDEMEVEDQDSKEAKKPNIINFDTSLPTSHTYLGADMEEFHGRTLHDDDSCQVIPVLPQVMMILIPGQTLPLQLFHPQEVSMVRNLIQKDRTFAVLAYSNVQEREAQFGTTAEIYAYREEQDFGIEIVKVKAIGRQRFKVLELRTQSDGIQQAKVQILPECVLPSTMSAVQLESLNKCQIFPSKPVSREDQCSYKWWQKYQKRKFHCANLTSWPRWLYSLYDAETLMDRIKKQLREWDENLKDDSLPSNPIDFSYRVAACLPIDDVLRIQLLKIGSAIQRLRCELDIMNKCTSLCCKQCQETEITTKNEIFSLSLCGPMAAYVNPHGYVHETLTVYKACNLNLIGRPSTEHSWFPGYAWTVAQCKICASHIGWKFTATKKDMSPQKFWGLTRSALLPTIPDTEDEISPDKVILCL
# IKZF2 (Helios), sequence (Q16531 whole entry partner, the tested form may be a part): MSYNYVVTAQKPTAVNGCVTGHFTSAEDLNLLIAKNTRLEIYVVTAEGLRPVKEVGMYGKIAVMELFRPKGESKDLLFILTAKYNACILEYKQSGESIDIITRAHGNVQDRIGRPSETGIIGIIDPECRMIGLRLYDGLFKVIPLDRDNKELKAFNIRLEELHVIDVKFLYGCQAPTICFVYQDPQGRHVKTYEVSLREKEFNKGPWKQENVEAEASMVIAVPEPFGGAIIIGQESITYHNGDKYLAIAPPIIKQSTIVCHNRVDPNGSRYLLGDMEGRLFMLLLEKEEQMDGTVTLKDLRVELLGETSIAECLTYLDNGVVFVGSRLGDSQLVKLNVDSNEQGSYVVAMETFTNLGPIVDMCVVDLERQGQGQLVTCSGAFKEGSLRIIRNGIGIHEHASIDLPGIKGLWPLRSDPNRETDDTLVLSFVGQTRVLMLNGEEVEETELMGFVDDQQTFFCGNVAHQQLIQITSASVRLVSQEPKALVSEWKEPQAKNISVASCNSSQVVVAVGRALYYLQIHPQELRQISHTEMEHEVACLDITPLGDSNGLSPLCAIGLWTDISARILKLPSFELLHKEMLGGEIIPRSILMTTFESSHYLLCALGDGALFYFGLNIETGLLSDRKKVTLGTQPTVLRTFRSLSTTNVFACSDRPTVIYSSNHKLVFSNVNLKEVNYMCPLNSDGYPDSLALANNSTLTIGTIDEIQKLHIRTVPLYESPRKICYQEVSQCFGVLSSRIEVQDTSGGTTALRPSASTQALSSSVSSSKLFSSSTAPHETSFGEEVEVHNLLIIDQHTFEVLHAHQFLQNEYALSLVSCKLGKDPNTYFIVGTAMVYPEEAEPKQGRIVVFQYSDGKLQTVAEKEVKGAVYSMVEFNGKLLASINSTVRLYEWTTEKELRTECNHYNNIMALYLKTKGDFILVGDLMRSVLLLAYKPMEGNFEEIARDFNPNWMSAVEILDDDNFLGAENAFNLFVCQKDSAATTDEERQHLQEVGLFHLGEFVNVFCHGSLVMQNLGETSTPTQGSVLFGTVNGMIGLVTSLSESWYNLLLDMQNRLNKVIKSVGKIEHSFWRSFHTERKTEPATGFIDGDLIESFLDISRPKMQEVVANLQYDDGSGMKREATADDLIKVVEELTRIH
Molecule,"IKZF2 % protein reduction at 10 μM, 24 h (IKZF2 (Helios); 10 μM, 24 h, 293GT cells) [%]",further results
"CCC(c1cnn(CC)c1)N1CCC(c2ccc3c(c2)CN(C2CCC(=O)NC2=O)C3=O)CC1 (centres unmarked) [Compound I-32, 3-(5-(1-(1-(1-ethyl-1H-pyrazol-4-yl)propyl)piperidin-4-yl)-1-oxoisoindolin-2-yl)piperidine-2,6-dione]",62,–
"CCn1cc(C(C)N2CCC(c3ccc4c(c3)CN(C3CCC(=O)NC3=O)C4=O)CC2)cn1 (centres unmarked) [Compound I-31, 3-(5-(1-(1-(1-ethyl-1H-pyrazol-4-yl)ethyl)piperidin-4-yl)-1-oxoisoindolin-2-yl)piperidine-2,6-dione]",70,–
"CCOc1ccc(CN2CCC(c3ccc4c(c3)CN(C3CCC(=O)NC3=O)C4=O)CC2)nc1 (centres unmarked) [Compound I-5, 3-(5-(1-((5-ethoxypyridin-2-yl)methyl)piperidin-4-yl)-1-oxoisoindolin-2-yl)piperidine-2,6-dione]",60,–
XOMA 089: fully human monoclonal antibody that specifically binds and neutralizes TGF-beta 1 and 2 ligands,–,Kd (human TGF-β2): 67.3 µM; Kd (human TGF-β3): 948 µM
"CC1CC(c2ccc3c(c2)CN(C2CCC(=O)NC2=O)C3=O)CC(C)N1Cc1ccccc1 (centres unmarked) [Compound I-2, 3-(5-(1-benzyl-2,6-dimethylpiperidin-4-yl)-1-oxoisoindolin-2-yl)piperidine-2,6-dione]",–,IKZF2 % protein reduction at 30 uM (IKZF2 (Helios)): 35% at
"O=C1CCC(N2Cc3cc(C4CCN(C5CCc6ncccc65)CC4)ccc3C2=O)C(=O)N1 (centres unmarked) [Compound I-35, 3-(5-(1-(6,7-dihydro-5H-cyclopenta[b]pyridin-5-yl)piperidin-4-yl)-1-oxoisoindolin-2-yl)piperidine-2,6-dione]",80,–
"O=C1CCC(N2Cc3cc(C4CCN(Cc5ccc(=O)[nH]c5)CC4)ccc3C2=O)C(=O)N1 (centres unmarked) [Compound I-1, 3-(1-oxo-5-(1-((6-oxo-1,6-dihydropyridin-3-yl)methyl)piperidin-4-yl)isoindolin-2-yl)piperidine-2,6-dione]",–,"IKZF2 % protein reduction at 10 μM, 24 h (IKZF2 (Helios)): 70%"
"COc1ccc(CN2CCC(c3ccc4c(c3)CN(C3CCC(=O)NC3=O)C4=O)CC2)cn1 (centres unmarked) [Compound I-7, 3-(5-(1-((6-methoxypyridin-3-yl)methyl)piperidin-4-yl)-1-oxoisoindolin-2-yl)piperidine-2,6-dione]",80,–
"CCC(c1cnccn1)N1CCC(c2ccc3c(c2)CN(C2CCC(=O)NC2=O)C3=O)CC1 (centres unmarked) [Compound I-33, 3-(1-oxo-5-(1-(1-(pyrazin-2-yl)propyl)piperidin-4-yl)isoindolin-2-yl)piperidine-2,6-dione]",62,–

# Further lines, with some results ahead:
"IKZF2 % protein reduction at 10 μM, 24 h (IKZF2 (Helios); 10 μM, 24 h, 293GT cells) [%]",Molecule,further results
40,"O=C1CCC(N2Cc3cc(C4CCN(Cc5ccnnc5)CC4)ccc3C2=O)C(=O)N1 (centres unmarked) [Compound I-18, 3-(1-oxo-5-(1-(pyridazin-4-ylmethyl)piperidin-4-yl)isoindolin-2-yl)piperidine-2,6-dione]",–
74,"COC1CCC(N2CCC(c3ccc4c(c3)CN(C3CCC(=O)NC3=O)C4=O)CC2)CC1 (centres unmarked) [Compound I-36, 3-(5-(1-(4-methoxycyclohexyl)piperidin-4-yl)-1-oxoisoindolin-2-yl)piperidine-2,6-dione]",–
55,"O=C1CCC(N2Cc3cc(C4CCN(Cc5cnccn5)CC4)ccc3C2=O)C(=O)N1 (centres unmarked) [Compound I-14, 3-(1-oxo-5-(1-(pyrazin-2-ylmethyl)piperidin-4-yl)isoindolin-2-yl)piperidine-2,6-dione]",–
50,"O=C1CCC(N2Cc3cc(C4CCN(Cc5ccncn5)CC4)ccc3C2=O)C(=O)N1 (centres unmarked) [Compound I-16, 3-(1-oxo-5-(1-(pyrimidin-4-ylmethyl)piperidin-4-yl)isoindolin-2-yl)piperidine-2,6-dione]",–
75,"O=C1CCC(N2Cc3cc(C4CCN(CC5CCC(CF)CC5)CC4)ccc3C2=O)C(=O)N1 (centres unmarked) [Compound I-10, 3-(5-(1-((4-(fluoromethyl)cyclohexyl)methyl)piperidin-4-yl)-1-oxoisoindolin-2-yl)piperidine-2,6-dione]",–
80,"CC(C1CCOCC1)N1CCC(c2ccc3c(c2)CN(C2CCC(=O)NC2=O)C3=O)CC1 (centres unmarked) [Compound I-30, 3-(1-oxo-5-(1-(1-(tetrahydro-2H-pyran-4-yl)ethyl)piperidin-4-yl)isoindolin-2-yl)piperidine-2,6-dione]",–
50,"COc1ccc(CN2CCC(c3ccc4c(c3)CN(C3CCC(=O)NC3=O)C4=O)CC2)nc1 (centres unmarked) [Compound I-6, 3-(5-(1-((5-methoxypyridin-2-yl)methyl)piperidin-4-yl)-1-oxoisoindolin-2-yl)piperidine-2,6-dione]",–
60,"O=C1CCC(N2Cc3cc(C4CCN(CCn5cccn5)CC4)ccc3C2=O)C(=O)N1 (centres unmarked) [Compound I-11, 3-(5-(1-(2-(1H-pyrazol-1-yl)ethyl)piperidin-4-yl)-1-oxoisoindolin-2-yl)piperidine-2,6-dione]",–
80,"CC1=CCC(CN2CCC(c3ccc4c(c3)CN(C3CCC(=O)NC3=O)C4=O)CC2)CC1 (centres unmarked) [Compound I-13, 3-(5-(1-((4-methylcyclohex-3-en-1-yl)methyl)piperidin-4-yl)-1-oxoisoindolin-2-yl)piperidine-2,6-dione]",–
40,"O=C1CCC(N2Cc3cc(C4CCN(Cc5cccnn5)CC4)ccc3C2=O)C(=O)N1 (centres unmarked) [Compound I-15, 3-(1-oxo-5-(1-(pyridazin-3-ylmethyl)piperidin-4-yl)isoindolin-2-yl)piperidine-2,6-dione]",–
70,"CCOc1ccc(CN2CCC(c3ccc4c(c3)CN(C3CCC(=O)NC3=O)C4=O)CC2)cn1 (centres unmarked) [Compound I-8, 3-(5-(1-((6-ethoxypyridin-3-yl)methyl)piperidin-4-yl)-1-oxoisoindolin-2-yl)piperidine-2,6-dione]",–
50,"Cc1ncc(CN2CCC(c3ccc4c(c3)CN(C3CCC(=O)NC3=O)C4=O)CC2)cn1 (centres unmarked) [Compound I-17, 3-(5-(1-((2-methylpyrimidin-5-yl)methyl)piperidin-4-yl)-1-oxoisoindolin-2-yl)piperidine-2,6-dione]",–
60,"N#C[C@H]1CC[C@H](CN2CCC(c3ccc4c(c3)CN(C3CCC(=O)NC3=O)C4=O)CC2)CC1 (some centres unmarked) [Compound I-3, (1r,4r)-4-((4-(2-(2,6-dioxopiperidin-3-yl)-1-oxoisoindolin-5-yl)piperidin-1-yl)methyl)cyclohexane-1-carbonitrile]",–
